According to ChEMBL document CHEMBL1201862, “PubChem BioAssay data set” (2004):
The source made the active and inactive calls.

Columns and labels:
Protein RecA = target: T1, Protein RecA (Mycobacterium tuberculosis, UniProt P9WHJ3); assay: Fluorescence Cell-Free Homogeneous Dose Retest to Identify Inhibitors of RecA-Intein Splicing Activity. [Related pubchem assays (depositor defined):AID2097, AID2223, AID489010, AID492950]; type: functional
T1 sequence (P9WHJ3 whole entry): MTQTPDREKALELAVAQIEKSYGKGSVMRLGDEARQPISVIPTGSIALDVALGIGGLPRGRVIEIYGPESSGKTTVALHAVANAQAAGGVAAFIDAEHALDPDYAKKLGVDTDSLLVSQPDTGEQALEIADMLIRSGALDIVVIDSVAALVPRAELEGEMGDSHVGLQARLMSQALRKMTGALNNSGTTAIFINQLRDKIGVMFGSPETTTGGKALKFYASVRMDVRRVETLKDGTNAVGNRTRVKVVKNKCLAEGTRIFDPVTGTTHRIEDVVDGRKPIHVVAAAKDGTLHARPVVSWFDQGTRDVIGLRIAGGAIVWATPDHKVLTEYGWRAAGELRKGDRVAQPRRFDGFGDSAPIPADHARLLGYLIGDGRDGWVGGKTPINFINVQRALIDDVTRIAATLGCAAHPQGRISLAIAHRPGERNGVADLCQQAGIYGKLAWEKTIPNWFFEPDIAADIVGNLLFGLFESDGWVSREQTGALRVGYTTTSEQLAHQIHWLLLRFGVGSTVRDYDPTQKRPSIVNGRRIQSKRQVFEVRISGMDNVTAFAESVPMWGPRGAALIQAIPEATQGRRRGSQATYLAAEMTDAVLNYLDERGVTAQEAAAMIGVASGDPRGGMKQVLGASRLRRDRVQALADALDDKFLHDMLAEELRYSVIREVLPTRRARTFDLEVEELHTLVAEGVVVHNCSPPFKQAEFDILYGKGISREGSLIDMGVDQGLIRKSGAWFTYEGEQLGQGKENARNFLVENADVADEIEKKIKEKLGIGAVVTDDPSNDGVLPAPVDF

[1] = target: T2, Probable nicotinate-nucleotide adenylyltransferase (Staphylococcus aureus (strain N315), UniProt P65502); type: functional, Staphylococcus aureus subsp. aureus N315; settings: read-out: IC50_Mean;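 as to IC50 Mean: confirmatory dose-response retesting of NadD inhibitor hits first found in an ultra-high-throughput screen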
T2 sequence (P65502 whole entry): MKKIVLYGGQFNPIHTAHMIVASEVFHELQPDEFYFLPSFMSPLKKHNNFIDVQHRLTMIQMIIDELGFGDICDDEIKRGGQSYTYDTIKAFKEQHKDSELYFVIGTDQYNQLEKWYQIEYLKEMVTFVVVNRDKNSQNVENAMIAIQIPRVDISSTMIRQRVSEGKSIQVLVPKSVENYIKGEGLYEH

[2] = target: T2, Probable nicotinate-nucleotide adenylyltransferase; type: functional, Staphylococcus aureus subsp. aureus N315
[3] = target: T3, Replicative DNA helicase DnaB (Mycobacterium tuberculosis, UniProt P9WMR3); assay: DnaB intein splicing inhibitors, dose response, biochemical, cell-free fluorescence (AID 449749); type: functional
T3 sequence (P9WMR3 whole entry): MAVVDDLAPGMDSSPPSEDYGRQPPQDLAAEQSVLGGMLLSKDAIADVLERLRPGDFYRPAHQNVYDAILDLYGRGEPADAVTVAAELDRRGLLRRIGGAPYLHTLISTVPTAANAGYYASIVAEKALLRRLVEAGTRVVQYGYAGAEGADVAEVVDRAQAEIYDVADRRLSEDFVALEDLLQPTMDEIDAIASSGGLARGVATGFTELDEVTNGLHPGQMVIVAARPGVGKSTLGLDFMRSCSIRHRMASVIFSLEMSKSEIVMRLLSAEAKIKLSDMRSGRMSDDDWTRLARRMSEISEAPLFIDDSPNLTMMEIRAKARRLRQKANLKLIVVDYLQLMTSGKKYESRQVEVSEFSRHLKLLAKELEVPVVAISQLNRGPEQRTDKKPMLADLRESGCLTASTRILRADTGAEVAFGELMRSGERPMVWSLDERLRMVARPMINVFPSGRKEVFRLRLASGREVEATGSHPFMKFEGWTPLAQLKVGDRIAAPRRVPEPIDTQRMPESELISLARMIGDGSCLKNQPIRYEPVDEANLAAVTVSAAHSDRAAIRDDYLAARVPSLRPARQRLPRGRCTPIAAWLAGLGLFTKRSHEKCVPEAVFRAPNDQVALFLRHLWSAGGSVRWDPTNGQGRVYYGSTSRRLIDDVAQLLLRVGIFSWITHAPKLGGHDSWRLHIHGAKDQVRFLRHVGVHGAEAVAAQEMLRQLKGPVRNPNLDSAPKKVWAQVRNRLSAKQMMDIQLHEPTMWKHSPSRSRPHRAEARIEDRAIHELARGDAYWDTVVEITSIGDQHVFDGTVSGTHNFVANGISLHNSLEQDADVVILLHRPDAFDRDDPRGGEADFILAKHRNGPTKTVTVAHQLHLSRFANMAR

Paired box protein Pax-8 = Paired box protein Pax-8 (Homo sapiens, UniProt Q06710); assay: PAX8 transcriptional activity inhibition in RMG-I – RMG-I cells, luciferase, cherry-pick, dose response (AID 687027); type: functional, cell-based;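 also: luciferase reporter driven by Pax8 target thyroperoxidase promoter measured by SteadyGlo luminescence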
Chain of Paired box protein Pax-8 (Q06710 whole entry): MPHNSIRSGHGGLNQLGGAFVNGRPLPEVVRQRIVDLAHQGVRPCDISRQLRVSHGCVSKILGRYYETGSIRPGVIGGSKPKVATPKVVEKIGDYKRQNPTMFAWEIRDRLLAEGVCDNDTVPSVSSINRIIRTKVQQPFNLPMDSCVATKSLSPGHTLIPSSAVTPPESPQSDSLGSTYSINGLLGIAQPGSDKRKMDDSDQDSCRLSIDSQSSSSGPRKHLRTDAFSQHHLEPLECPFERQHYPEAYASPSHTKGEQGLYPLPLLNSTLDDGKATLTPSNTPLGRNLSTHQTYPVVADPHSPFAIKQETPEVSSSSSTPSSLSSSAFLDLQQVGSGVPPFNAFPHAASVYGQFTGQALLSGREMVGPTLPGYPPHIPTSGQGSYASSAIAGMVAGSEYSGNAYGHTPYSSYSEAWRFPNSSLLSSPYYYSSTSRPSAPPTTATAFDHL

Nonstructural protein 1 = Nonstructural protein 1 (Influenza A virus, UniProt Q194T2); type: functional, Influenza A virus (A/California/07/2009(H1N1))
Chain of Nonstructural protein 1 (Q194T2 whole entry): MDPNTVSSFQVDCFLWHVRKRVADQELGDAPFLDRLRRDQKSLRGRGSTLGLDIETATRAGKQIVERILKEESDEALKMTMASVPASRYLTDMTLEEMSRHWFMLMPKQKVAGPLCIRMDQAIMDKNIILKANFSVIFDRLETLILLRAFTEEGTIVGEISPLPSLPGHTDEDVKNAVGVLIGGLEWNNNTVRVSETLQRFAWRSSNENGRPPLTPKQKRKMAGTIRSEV

[4] = general cell-killing toxicity readout – plate reader, dry powder samples, cytotoxicity control for PAX8 inhibitor project, dose response (AID 743021); type: functional, cell-based
[5] = target: T4, Microphthalmia-associated transcription factor (Homo sapiens, UniProt O75030); assay: reducers of TRPM1 reporter luminescence, concentration series – cell-based, SK-MEL-5, cherry-picked, set 3, MITF inhibitor project, dose response (AID 493073); type: functional;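 also: SK-MEL-5 melanoma cells with luciferase driven by the MITF target TRPM1 promoter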
T4 sequence (O75030 whole entry): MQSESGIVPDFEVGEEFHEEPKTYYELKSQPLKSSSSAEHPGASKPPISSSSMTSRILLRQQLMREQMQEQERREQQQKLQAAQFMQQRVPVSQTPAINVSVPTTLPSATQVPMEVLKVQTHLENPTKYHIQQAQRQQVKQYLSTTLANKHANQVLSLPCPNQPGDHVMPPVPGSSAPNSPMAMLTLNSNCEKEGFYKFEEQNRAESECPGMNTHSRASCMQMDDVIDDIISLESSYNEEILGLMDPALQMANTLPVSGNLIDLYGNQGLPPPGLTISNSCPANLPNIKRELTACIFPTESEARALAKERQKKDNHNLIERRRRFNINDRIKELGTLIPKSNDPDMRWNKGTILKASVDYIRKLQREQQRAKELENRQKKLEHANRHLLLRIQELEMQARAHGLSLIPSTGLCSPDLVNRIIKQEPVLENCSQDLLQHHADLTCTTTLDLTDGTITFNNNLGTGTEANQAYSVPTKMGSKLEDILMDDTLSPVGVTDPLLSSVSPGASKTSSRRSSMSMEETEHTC

[6] = target: T5, Sentrin-specific protease 1 (Homo sapiens, UniProt Q9P0U3); assay: SENP1 catalytic domain blockers, concentration series – biochemical, kinetic FRET, dose response (AID 651697); type: functional; settings: read-out: IC50_Mean
T5 sequence (Q9P0U3 whole entry): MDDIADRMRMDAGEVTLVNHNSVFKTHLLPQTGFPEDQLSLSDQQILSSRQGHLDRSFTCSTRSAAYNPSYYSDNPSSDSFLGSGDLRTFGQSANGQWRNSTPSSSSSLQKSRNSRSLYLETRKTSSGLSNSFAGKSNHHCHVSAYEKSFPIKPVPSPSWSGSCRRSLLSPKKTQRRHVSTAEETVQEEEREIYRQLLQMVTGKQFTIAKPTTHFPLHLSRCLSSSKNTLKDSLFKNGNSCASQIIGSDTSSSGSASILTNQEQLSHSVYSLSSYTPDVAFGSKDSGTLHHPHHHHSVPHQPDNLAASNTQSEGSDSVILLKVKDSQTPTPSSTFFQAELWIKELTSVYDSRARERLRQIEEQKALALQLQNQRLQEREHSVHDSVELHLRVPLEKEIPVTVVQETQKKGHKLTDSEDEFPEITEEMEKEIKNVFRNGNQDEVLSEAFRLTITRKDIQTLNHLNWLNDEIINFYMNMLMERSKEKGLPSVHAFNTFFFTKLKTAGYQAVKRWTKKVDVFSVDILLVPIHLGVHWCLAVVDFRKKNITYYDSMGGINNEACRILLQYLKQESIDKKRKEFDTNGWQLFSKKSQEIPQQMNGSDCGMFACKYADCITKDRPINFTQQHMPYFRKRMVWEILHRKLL

[7] = target: T5, Sentrin-specific protease 1; assay: Dose response confirmation of small molecule inhibitors of the catalytic domain of the SUMO protease, SENP1 in a FRET assay.; type: functional; settings: read-out: IC50_Mean
[8] = target: Mitochondrial peptide methionine sulfoxide reductase (Bos taurus, UniProt P54149); assay: Absorbance-based biochemical high throughput dose response assay for activators of Methionine sulfoxide reductase A (MsrA).; type: functional
Chain of Mitochondrial peptide methionine sulfoxide reductase (P54149 whole entry): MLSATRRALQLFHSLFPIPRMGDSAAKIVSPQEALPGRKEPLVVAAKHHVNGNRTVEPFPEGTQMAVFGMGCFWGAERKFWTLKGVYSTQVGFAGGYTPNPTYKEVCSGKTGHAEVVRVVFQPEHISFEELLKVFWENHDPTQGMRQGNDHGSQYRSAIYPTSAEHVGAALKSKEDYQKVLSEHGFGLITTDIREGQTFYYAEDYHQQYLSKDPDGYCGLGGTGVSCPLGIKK

[9] = target: Glucose-6-phosphate 1-dehydrogenase (Homo sapiens, UniProt P11413); assay: inhibition of Homo sapiens G6PD, dose series – biochemical, fluorescence, selectivity assay for P. falciparum G6PD inhibitor project, dose response (AID 504792); type: functional
Chain of Glucose-6-phosphate 1-dehydrogenase (P11413 whole entry, the tested form may be a part): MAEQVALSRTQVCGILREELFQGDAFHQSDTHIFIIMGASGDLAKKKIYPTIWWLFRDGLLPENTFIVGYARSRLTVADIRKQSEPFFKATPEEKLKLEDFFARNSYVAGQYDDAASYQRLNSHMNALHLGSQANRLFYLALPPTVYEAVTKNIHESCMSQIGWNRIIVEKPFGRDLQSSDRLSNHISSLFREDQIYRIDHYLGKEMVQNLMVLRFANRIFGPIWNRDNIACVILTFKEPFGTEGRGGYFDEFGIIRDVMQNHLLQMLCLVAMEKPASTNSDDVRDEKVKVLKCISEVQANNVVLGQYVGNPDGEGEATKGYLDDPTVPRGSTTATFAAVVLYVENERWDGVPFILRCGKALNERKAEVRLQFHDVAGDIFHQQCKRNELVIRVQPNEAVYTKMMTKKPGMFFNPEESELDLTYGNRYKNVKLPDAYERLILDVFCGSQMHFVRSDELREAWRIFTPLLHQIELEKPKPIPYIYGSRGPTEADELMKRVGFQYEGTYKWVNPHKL

[10] = Fluorescence-based cell-based high throughput dose response assay for inhibitors of the interaction of nucleotide-binding oligomerization domain containing 2 (NOD2) and the receptor-interacting serine-threonine kinase 2 (RIPK2).; type: functional; settings: Homo sapiens
Hexokinase = target: T6, Hexokinase (Trypanosoma brucei, UniProt Q38C41); assay: Confirmation assay for inhibitors of Trypanosoma brucei hexokinase 1-Analogue-first series. [Related pubchem assays (depositor defined):AID1430, AID1632, AID2516, AID2560, AID2579, AID2600, AID449725, AID492951]; type: functional
T6 sequence (Q38C41 whole entry): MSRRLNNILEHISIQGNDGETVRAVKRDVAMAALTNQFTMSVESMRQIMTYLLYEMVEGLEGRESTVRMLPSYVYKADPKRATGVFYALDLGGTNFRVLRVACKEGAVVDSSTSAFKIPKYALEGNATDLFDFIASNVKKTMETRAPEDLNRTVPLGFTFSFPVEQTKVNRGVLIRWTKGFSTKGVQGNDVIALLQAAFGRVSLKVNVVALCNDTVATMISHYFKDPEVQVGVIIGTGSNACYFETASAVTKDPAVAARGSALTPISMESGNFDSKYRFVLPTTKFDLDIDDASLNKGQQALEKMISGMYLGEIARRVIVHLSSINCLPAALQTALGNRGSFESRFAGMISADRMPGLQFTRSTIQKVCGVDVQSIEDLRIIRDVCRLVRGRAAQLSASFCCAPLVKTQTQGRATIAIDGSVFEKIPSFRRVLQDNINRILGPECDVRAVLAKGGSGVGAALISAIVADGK

[11] = target: T7, Rac GTPase-activating protein 1 (Homo sapiens, UniProt Q9H0H5); assay: blockers of MgcRacGAP-driven Rac1 GTP hydrolysis – biochemical, ADP Hunter fluorescence, primary and confirmatory, confirmation (AID 624330); type: functional
T7 sequence (Q9H0H5 whole entry): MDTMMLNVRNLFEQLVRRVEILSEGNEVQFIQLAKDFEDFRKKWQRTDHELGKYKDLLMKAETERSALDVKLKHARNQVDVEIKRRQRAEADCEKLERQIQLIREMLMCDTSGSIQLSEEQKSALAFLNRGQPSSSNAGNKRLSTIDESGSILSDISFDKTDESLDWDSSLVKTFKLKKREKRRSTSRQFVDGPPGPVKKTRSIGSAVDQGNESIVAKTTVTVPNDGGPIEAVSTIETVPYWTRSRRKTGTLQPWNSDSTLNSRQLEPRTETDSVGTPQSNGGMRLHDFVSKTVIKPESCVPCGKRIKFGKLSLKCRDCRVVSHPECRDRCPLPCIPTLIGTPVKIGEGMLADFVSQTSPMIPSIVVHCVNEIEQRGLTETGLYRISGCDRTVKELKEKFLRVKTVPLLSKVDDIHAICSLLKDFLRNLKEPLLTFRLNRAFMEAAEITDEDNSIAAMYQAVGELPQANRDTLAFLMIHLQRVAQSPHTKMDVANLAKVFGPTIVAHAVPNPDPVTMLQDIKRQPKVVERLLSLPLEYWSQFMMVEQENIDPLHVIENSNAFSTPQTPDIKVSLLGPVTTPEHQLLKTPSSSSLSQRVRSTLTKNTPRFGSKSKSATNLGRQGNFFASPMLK

Beta Lactamase = Beta Lactamase (Pseudomonas aeruginosa, UniProt Q932Y6); assay: BLA reporter interference, concentration series – BLA reporter cells, FRET fluorescence, artefact control for NOD2-RIPK2 interaction inhibitor project, dose response (AID 651552); type: functional, cell-based
Chain of Beta Lactamase (Q932Y6 whole entry, the tested form may be a part): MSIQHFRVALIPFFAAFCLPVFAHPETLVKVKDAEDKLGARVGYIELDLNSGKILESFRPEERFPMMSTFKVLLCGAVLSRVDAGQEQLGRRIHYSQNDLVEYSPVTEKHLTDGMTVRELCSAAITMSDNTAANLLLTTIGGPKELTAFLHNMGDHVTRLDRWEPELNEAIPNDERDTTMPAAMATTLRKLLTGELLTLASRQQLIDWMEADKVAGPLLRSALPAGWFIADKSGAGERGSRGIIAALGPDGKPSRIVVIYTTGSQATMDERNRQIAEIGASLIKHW

[12] = target: T8, Carboxy-terminal domain RNA polymerase II polypeptide A small phosphatase 1 (Homo sapiens, UniProt Q9GZU7); assay: CTDSP1 inhibitors, concentration-response, biochemical, absorbance readout, ultra-high-throughput screen actives (AID 540297); type: functional
T8 sequence (Q9GZU7 whole entry): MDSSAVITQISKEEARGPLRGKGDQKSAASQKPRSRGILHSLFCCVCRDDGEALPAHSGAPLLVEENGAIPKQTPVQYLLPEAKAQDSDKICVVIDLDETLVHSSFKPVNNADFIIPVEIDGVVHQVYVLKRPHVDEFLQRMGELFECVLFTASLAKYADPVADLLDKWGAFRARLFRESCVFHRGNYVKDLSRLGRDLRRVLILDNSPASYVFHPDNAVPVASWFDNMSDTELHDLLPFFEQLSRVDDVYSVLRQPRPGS

[13] = blockers of HIV-1 envelope-mediated cell-cell fusion – cherry-pick, dose response (AID 652057); type: functional, cell-based
[14] = viability loss in CEM21 cells – cell-based, CellTiter-Glo luminescence, cherry-picked, cytotoxicity control for viral fusion inhibitor project, dose response (AID 652042); type: functional;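 also: potency for signal decrease meaning cytotoxicity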

SMILES: CCn1c(SCC(=O)Nc2nc(-c3ccc(C)cc3)cs2)nnc1-c1ccccc1O
- EC50 (Protein RecA): 174 µM (active)
- IC50 [1]: 41.6 µM (active)
- IC50 [2]: 17.9 µM (active)
- AC50 [3]: 3.46 µM (active)

SMILES: CCS(=O)(=O)c1ccc(N=Nc2ccc(O)c3ncccc23)c(OC)c1
- AC50 (Paired box protein Pax-8): 1.19 µM (active)
- IC50 (Nonstructural protein 1): 9.78 µM (active)
- AC50 [4]: 50.2 µM (active)
- AC50 [5]: 9.23 µM (active)

SMILES: COC(=O)C1=CC(C(=O)c2cccs2)=NN(c2ccc(OC)cc2)C1C(=O)OC (stereo not drawn)
- IC50 [6]: 27.9 µM (inactive)
- IC50 [7]: 34.5 µM (inactive)

SMILES: O=c1c2ccc(F)cc2sn1-c1ccccc1
- EC50 [8]: > 104 µM (inactive)
- IC50 [9]: 11.8 µM (active)
- IC50 [10]: 5.43 µM (active)
- IC50 (Hexokinase): 2.31 µM (active)
- IC50 [11]: 36.4 µM (active)
- IC50 (Beta Lactamase): 23.4 µM (inactive)

SMILES: COc1cccc(N2[C@@H](CC(=O)O)c3cc(C(F)(F)F)ccc3S2(=O)=O)c1
- IC50 [12]: 5.53 µM (active)
- IC50 [1]: 31.7 µM (active)
- IC50 [2]: 17.4 µM (active)

SMILES: C[C@@H]1CN([C@@H](C)CO)C(=O)c2cccc(NC(=O)c3cnccn3)c2O[C@H]1CN(C)Cc1ccc(Cl)c(Cl)c1
- AC50 [13]: 53.4 µM (active)
- AC50 [14]: 49.9 µM (active)

SMILES: COc1ccc(O)c(/C=N/n2c(-c3ccco3)cs/c2=N\c2cccnc2)c1
- IC50 [6]: 49.7 µM (inactive)
- IC50 [7]: 23.1 µM (inactive)
